Where two headings read alike, the source gives them in different places. Blank lines part the entries; values can stand above or below the compound they belong to.
Key:
Assay in all cases: biochemical
PCTAIRE1 = PCTAIRE1 (Homo sapiens, UniProt Q00536)
PIM3 = PIM3 (Homo sapiens, UniProt Q86V86)
MELK = MELK (Homo sapiens, UniProt Q14680)
MSK1b = MSK1b (Homo sapiens, UniProt O75582)
CaMK2b = CaMK2b (Homo sapiens, UniProt Q13554)
MAPKAPK2 = MAPKAPK2 (Homo sapiens, UniProt P49137)
BMPR2 = biological target: T1, BMPR2 (Homo sapiens, UniProt Q13873)
T1 sequence (Q13873 1-1038): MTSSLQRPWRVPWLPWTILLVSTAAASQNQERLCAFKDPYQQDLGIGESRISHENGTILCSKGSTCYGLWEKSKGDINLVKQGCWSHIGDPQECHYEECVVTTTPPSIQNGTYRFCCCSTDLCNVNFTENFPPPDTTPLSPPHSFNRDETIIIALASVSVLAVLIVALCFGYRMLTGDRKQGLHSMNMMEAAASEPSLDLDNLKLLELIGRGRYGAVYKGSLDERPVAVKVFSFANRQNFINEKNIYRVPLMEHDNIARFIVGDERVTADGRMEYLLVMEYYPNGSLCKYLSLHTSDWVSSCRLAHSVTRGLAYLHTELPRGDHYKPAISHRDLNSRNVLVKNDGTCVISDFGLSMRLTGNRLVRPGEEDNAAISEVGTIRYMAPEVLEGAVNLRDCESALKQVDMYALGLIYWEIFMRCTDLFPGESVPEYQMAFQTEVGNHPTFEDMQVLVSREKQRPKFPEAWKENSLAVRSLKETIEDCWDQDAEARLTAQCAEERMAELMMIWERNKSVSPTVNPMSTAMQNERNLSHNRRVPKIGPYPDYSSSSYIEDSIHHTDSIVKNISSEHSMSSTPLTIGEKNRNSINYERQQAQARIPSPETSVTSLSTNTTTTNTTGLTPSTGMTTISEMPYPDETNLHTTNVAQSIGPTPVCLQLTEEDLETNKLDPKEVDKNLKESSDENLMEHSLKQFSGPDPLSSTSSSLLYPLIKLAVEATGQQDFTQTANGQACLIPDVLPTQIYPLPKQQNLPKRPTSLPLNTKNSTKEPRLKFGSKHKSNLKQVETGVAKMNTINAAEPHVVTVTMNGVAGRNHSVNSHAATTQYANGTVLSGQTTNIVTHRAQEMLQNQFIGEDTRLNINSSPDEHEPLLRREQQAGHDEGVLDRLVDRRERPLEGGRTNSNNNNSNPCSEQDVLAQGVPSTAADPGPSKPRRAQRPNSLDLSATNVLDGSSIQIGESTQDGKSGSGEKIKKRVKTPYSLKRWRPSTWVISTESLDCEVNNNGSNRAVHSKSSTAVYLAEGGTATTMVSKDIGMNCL

CaMKK2 = CaMKK2 (Homo sapiens, UniProt Q96RR4)
DAPK1 = DAPK1 (Homo sapiens, UniProt P53355)
NEK7 = NEK7 (Homo sapiens, UniProt Q8TDX7)
DYRK2 = biological target: T2, DYRK2 (Homo sapiens, UniProt Q92630)
T2 sequence (Q92630 1-601): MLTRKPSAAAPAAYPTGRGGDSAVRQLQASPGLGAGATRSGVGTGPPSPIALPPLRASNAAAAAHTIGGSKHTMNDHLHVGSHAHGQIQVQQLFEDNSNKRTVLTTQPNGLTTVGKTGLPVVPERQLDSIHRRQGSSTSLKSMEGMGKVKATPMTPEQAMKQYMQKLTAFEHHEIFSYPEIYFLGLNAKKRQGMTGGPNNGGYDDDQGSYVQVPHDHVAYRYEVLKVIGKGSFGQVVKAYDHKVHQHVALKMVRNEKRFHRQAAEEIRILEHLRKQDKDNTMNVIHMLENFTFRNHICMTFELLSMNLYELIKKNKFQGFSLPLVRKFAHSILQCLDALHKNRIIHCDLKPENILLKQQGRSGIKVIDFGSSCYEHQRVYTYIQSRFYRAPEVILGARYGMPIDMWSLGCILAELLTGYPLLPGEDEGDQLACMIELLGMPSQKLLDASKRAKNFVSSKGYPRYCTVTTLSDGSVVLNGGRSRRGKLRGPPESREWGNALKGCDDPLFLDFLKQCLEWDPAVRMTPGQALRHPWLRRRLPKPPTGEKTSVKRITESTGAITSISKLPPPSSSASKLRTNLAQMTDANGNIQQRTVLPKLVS

CK2a1 = CK2a1 (Homo sapiens, UniProt P68400)
EpHA5 = EpHA5 (Homo sapiens, UniProt P54756)
EpHA5, sequence (P54756 whole entry): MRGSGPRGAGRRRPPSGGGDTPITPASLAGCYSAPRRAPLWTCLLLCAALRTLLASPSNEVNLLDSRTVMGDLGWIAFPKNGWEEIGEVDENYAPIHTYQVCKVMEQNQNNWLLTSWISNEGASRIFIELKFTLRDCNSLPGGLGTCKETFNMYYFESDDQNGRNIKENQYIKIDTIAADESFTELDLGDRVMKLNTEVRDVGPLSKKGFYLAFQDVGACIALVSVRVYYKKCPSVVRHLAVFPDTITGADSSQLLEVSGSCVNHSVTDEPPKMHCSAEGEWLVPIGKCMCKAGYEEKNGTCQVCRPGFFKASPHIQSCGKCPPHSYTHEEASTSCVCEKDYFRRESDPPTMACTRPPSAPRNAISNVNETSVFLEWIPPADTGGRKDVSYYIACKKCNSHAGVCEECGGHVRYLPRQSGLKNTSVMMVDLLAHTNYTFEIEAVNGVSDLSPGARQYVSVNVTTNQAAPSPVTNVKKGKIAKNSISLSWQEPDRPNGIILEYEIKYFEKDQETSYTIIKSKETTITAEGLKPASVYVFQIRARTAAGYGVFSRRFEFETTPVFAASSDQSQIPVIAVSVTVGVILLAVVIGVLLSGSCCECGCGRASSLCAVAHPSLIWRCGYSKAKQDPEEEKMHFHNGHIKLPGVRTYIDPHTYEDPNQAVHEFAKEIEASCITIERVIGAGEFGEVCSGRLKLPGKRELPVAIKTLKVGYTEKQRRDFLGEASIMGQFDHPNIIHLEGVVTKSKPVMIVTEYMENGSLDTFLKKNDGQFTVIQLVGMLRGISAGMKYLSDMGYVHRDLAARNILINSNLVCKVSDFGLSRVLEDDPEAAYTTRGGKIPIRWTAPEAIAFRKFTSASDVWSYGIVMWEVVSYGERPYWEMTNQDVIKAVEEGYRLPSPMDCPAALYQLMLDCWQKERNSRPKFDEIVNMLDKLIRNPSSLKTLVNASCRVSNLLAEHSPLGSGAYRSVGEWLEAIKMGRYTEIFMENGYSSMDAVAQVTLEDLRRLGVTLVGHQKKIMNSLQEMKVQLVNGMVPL

MSK1b, sequence (O75582 whole entry): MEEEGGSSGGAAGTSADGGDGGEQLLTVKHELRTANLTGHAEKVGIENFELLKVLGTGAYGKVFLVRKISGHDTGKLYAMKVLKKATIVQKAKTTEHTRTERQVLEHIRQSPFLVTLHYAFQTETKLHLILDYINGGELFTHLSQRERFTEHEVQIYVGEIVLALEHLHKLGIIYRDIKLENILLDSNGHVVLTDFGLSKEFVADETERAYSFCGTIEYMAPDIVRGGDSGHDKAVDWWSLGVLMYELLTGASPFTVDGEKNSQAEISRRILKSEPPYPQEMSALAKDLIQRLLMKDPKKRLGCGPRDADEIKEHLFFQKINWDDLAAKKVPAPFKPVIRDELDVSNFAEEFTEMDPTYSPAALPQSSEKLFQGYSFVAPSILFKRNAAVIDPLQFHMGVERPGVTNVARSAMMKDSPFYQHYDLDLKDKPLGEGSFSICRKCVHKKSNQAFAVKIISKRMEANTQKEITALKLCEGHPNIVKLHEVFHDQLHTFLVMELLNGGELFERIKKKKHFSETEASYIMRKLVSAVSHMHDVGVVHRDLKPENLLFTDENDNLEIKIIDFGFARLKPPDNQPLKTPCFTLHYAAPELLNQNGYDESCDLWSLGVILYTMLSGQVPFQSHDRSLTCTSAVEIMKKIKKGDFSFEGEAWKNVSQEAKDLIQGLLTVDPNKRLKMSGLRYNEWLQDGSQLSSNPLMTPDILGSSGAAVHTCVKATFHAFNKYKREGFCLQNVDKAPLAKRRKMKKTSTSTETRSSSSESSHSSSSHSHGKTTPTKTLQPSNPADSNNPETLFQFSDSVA
DAPK1, sequence (P53355 whole entry): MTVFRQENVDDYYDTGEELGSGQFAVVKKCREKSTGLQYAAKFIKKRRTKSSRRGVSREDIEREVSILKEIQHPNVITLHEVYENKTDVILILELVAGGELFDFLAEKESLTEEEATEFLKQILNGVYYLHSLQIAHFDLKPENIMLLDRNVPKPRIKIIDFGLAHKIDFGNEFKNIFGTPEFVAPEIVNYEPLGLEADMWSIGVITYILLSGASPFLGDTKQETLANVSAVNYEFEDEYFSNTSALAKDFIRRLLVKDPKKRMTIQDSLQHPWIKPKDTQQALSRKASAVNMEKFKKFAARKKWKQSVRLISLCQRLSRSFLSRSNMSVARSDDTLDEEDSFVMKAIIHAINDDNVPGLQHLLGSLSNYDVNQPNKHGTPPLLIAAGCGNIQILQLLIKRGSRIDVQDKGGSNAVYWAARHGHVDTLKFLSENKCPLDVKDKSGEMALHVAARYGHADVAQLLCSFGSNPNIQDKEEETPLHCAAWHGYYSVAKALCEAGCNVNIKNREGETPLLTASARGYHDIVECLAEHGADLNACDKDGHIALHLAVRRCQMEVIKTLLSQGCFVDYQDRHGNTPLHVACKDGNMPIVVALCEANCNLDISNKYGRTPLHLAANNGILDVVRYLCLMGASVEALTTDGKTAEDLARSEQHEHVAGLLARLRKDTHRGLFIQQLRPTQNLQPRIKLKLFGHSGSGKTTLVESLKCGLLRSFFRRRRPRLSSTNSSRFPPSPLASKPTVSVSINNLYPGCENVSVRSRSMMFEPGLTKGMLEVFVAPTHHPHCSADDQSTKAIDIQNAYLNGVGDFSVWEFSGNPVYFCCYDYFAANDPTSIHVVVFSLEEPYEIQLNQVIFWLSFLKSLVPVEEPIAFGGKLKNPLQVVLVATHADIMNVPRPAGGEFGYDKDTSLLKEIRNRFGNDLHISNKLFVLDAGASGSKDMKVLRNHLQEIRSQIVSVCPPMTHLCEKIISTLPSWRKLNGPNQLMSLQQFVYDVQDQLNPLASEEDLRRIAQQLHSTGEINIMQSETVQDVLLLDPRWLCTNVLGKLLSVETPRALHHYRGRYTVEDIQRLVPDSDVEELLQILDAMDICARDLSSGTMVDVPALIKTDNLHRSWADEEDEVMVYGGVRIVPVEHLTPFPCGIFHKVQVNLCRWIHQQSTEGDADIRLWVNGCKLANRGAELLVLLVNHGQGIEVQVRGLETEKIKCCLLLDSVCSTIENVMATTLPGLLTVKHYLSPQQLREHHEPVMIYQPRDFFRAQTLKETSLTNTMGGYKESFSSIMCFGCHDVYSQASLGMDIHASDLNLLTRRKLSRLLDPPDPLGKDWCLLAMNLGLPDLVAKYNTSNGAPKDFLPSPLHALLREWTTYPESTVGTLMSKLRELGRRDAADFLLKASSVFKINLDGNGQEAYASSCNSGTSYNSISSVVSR
MAPKAPK2, sequence (P49137 whole entry): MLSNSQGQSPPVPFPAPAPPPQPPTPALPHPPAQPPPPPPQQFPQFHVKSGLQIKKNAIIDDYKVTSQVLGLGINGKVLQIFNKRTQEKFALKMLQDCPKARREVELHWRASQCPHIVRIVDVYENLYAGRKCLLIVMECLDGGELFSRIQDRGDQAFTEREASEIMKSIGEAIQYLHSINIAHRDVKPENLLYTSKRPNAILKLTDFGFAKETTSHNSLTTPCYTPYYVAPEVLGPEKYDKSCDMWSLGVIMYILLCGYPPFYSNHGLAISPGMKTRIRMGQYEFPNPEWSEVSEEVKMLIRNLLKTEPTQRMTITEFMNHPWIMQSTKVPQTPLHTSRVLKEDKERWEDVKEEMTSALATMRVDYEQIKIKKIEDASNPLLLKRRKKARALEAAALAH
NEK7, sequence (Q8TDX7 whole entry): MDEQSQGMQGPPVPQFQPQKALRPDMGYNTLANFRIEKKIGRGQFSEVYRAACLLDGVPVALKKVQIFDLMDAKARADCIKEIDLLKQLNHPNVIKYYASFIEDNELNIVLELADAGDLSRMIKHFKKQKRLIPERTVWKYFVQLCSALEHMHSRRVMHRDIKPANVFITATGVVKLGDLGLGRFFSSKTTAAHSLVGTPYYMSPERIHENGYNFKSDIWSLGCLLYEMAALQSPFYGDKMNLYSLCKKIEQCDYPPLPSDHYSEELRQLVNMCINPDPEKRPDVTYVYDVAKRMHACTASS
CK2a1, sequence (P68400 whole entry): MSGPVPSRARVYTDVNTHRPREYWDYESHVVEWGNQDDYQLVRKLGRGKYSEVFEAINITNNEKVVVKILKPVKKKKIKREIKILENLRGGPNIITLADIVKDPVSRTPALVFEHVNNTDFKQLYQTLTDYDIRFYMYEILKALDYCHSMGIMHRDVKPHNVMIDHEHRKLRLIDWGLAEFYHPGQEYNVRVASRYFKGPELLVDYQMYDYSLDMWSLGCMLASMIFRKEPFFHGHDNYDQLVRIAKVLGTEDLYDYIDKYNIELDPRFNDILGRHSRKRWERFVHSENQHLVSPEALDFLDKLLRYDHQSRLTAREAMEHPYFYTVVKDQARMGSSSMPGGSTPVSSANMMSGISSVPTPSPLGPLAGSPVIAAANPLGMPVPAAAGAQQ

Compound: CNc1ncc2cc(-c3cc(F)ccc3F)c(=O)n(CCCCN)c2n1 [compound 5, 8-(4-Aminobutyl)-6-(2,5-difluorophenyl)-2-(methylamino)pyrido[2,3-d]pyrimidin-7(8H)-one]
- ΔTm at 10 µM (PCTAIRE1; read-out: dTm MR22 (5)): 0.3 °C
- ΔTm at 10 µM (PIM3; read-out: dTm MR22 (5)): -0.6 °C
- ΔTm at 10 µM (MELK; read-out: dTm MR22 (5)): 3.2 °C
- ΔTm at 10 µM (MSK1b; read-out: dTm MR22 (5)): 1.5 °C
- ΔTm at 10 µM (CaMK2b; read-out: dTm MR22 (5)): -0.6 °C
- ΔTm at 10 µM (MAPKAPK2; read-out: dTm MR22 (5)): -0.1 °C
- ΔTm at 10 µM (BMPR2; read-out: dTm MR22 (5)): 0.3 °C
- ΔTm at 10 µM (CaMKK2; read-out: dTm MR22 (5)): -0.1 °C
- ΔTm at 10 µM (DAPK1; read-out: dTm MR22 (5)): -0.7 °C
- ΔTm at 10 µM (NEK7; read-out: dTm MR22 (5)): -1.3 °C
- ΔTm at 10 µM (DYRK2; read-out: dTm MR22 (5)): 0.2 °C
- ΔTm at 10 µM (CK2a1; read-out: dTm MR22 (5)): 0.4 °C

Compound: CNc1ncc2cc(-c3ccccc3Cl)c(=O)n(CCCCN)c2n1 [compound 4, 8-(4-Aminobutyl)-6-(2-chlorophenyl)-2-(methylamino)pyrido[2,3-d]pyrimidin-7(8H)-one]
- ΔTm at 10 µM (PCTAIRE1; read-out: dTm MR21 (4)): 1.8 °C
- ΔTm at 10 µM (PIM3; read-out: dTm MR21 (4)): -0.8 °C
- ΔTm at 10 µM (MELK; read-out: dTm MR21 (4)): 5.7 °C
- ΔTm at 10 µM (MSK1b; read-out: dTm MR21 (4)): 2.1 °C
- ΔTm at 10 µM (CaMK2b; read-out: dTm MR21 (4)): -1.1 °C
- ΔTm at 10 µM (MAPKAPK2; read-out: dTm MR21 (4)): 0.1 °C
- ΔTm at 10 µM (BMPR2; read-out: dTm MR21 (4)): 1.6 °C
- ΔTm at 10 µM (CaMKK2; read-out: dTm MR21 (4)): 0.6 °C
- ΔTm at 10 µM (DAPK1; read-out: dTm MR21 (4)): -0.2 °C
- ΔTm at 10 µM (NEK7; read-out: dTm MR21 (4)): 0.1 °C
- ΔTm at 10 µM (DYRK2; read-out: dTm MR21 (4)): 0 °C
- ΔTm at 10 µM (CK2a1; read-out: dTm MR21 (4)): -0.4 °C

Compound: CNc1ncc2cc(-c3ccc(-c4cccc(C)n4)cc3Cl)c(=O)n(CC3OCC(N)CO3)c2n1 (centres unmarked) [compound 2, G-5555]
- dTm G-5555 (2) (EpHA5; 10 µM, binder): 2.7 °C
- dTm G-5555 (2) (PCTAIRE1; 10 µM, binder): 1.3 °C
- dTm G-5555 (2) (PIM3; 10 µM, binder): -1.8 °C
- dTm G-5555 (2) (MELK; 10 µM, binder): 8.4 °C
- dTm G-5555 (2) (MSK1b; 10 µM, binder): 2.0 °C
- dTm G-5555 (2) (CaMK2b; 10 µM, binder): -1.7 °C
- dTm G-5555 (2) (MAPKAPK2; 10 µM, binder): -0.3 °C
- dTm G-5555 (2) (BMPR2; 10 µM, binder): -0.4 °C
- dTm G-5555 (2) (CaMKK2; 10 µM, binder): 1.1 °C
- dTm G-5555 (2) (DAPK1; 10 µM, binder): -1.0 °C
- dTm G-5555 (2) (NEK7; 10 µM, binder): 0.1 °C
- dTm G-5555 (2) (DYRK2; 10 µM, binder): -0.1 °C
- dTm G-5555 (2) (CK2a1; 10 µM, binder): 0.1 °C

Next, values leading:

- ΔTm at 10 µM (EpHA5; read-out: dTm 7): 3.2 °C
- ΔTm at 10 µM (PCTAIRE1; read-out: dTm 7): 0.1 °C
- ΔTm at 10 µM (PIM3; read-out: dTm 7): 0.9 °C
- ΔTm at 10 µM (MELK; read-out: dTm 7): 3.6 °C
- ΔTm at 10 µM (MSK1b; read-out: dTm 7): 1.1 °C
- ΔTm at 10 µM (CaMK2b; read-out: dTm 7): 0.2 °C
- ΔTm at 10 µM (MAPKAPK2; read-out: dTm 7): 0 °C
- ΔTm at 10 µM (BMPR2; read-out: dTm 7): 0 °C
- ΔTm at 10 µM (CaMKK2; read-out: dTm 7): 0.5 °C
- ΔTm at 10 µM (DAPK1; read-out: dTm 7): 0.1 °C
- ΔTm at 10 µM (NEK7; read-out: dTm 7): -0.2 °C
- ΔTm at 10 µM (DYRK2; read-out: dTm 7): 0 °C
- ΔTm at 10 µM (CK2a1; read-out: dTm 7): 0.4 °C
Compound: CNc1ncc2cc(-c3cc(Br)ccc3Cl)c(=O)n(C[C@H]3OC[C@H](N)CO3)c2n1 [compound 7, 8-(((2r,5r)-5-Amino-1,3-dioxan-2-yl)methyl)-6-(5-bromo-2-chlorophenyl)-2-(methylamino)pyrido[2,3-d]pyrimidin-7(8H)-one]

- ΔTm at 10 µM (EpHA5; read-out: dTm 6): 4.5 °C
- ΔTm at 10 µM (PCTAIRE1; read-out: dTm 6): 1.1 °C
- ΔTm at 10 µM (PIM3; read-out: dTm 6): -0.4 °C
- ΔTm at 10 µM (MSK1b; read-out: dTm 6): 0.3 °C
- ΔTm at 10 µM (CaMK2b; read-out: dTm 6): 0.1 °C
- ΔTm at 10 µM (MAPKAPK2; read-out: dTm 6): -0.7 °C
- ΔTm at 10 µM (BMPR2; read-out: dTm 6): -0.3 °C
- ΔTm at 10 µM (CaMKK2; read-out: dTm 6): -0.2 °C
- ΔTm at 10 µM (DAPK1; read-out: dTm 6): -0.2 °C
- ΔTm at 10 µM (NEK7; read-out: dTm 6): -1 °C
- ΔTm at 10 µM (DYRK2; read-out: dTm 6): -0.1 °C
- ΔTm at 10 µM (CK2a1; read-out: dTm 6): 0.2 °C
Compound: CNc1ncc2cc(-c3cc(Br)ccc3Cl)c(=O)n(CCCCN)c2n1 [compound 6, 8-(4-Aminobutyl)-6-(5-bromo-2-chlorophenyl)-2-(methylamino)pyrido[2,3-d]pyrimidin-7(8H)-one]

From paper doi:10.1101/2023.03.24.534094v2 (biorxiv, 2023)
